Test results: patent publication US11078207B2, “Substituted pyrrolo[2,3-d]pyrimidines as HER2 inhibitors” (TAIHO PHARMACEUTICAL CO., LTD., priority 2019, dated 2021)
pIC50: −log10 of the molar value.

Experiments:
[1] = biological target: T1, HER2 (Homo sapiens, UniProt P04626); experiment: Inhibitory effect (in vitro) on HER2 phosphorylation activity; type: biochemical; conditions: recombinant human HER2, ATP 5 μM, 25° C. 30 minutes
T1 construct: purchased Carna Biosciences, Inc
Source text: In order to determine conditions for a method of measuring the in vitro inhibitory activity of a compound against HER2 phosphorylation activity, based on the report regarding a HER2 kinase reaction using, as a substrate, a peptide having the same sequence (5-FAM-[…]-CONH2) as that of ProfilerPro Peptide 22 of PerkinElmer (Xie H et al., PLoS One. 2011; 6(7): e21487), ProfilerPro Peptide 22 was used as a substrate. A purified recombinant human HER2 protein used in the present test was purchased from Carna Biosciences, Inc. Upon the measurement of the inhibitory activity of the compound, first, the compound of the present invention was diluted stepwise with dimethyl sulfoxide (DMSO). […] To the reaction solution, EDTA was added to a final concentration of 30 mM, so as to terminate the reaction. Finally, using LabChip (registered trademark) EZ Reader II (PerkinElmer), an unphosphorylated substrate peptide (S) and a phosphorylated peptide (P) were separated and detected according to microchannel capillary electrophoresis.

[2] = biological target: HER2 exon 20 insertion mutant (HER2ex20insYVMA, A775_G776insYVMA) (Homo sapiens, UniProt P04626, DUP772-775); experiment: Inhibitory action (in vitro) against HER2 exon 20 insertion mutant phosphorylation activity; type: biochemical; conditions: 30 min pre-incubation, ATP 200 μM, 25° C. 220 minutes
Chain of HER2 exon 20 insertion mutant (HER2ex20insYVMA, A775_G776insYVMA) (P04626 with tags, fused parts or gaps DUP772-775): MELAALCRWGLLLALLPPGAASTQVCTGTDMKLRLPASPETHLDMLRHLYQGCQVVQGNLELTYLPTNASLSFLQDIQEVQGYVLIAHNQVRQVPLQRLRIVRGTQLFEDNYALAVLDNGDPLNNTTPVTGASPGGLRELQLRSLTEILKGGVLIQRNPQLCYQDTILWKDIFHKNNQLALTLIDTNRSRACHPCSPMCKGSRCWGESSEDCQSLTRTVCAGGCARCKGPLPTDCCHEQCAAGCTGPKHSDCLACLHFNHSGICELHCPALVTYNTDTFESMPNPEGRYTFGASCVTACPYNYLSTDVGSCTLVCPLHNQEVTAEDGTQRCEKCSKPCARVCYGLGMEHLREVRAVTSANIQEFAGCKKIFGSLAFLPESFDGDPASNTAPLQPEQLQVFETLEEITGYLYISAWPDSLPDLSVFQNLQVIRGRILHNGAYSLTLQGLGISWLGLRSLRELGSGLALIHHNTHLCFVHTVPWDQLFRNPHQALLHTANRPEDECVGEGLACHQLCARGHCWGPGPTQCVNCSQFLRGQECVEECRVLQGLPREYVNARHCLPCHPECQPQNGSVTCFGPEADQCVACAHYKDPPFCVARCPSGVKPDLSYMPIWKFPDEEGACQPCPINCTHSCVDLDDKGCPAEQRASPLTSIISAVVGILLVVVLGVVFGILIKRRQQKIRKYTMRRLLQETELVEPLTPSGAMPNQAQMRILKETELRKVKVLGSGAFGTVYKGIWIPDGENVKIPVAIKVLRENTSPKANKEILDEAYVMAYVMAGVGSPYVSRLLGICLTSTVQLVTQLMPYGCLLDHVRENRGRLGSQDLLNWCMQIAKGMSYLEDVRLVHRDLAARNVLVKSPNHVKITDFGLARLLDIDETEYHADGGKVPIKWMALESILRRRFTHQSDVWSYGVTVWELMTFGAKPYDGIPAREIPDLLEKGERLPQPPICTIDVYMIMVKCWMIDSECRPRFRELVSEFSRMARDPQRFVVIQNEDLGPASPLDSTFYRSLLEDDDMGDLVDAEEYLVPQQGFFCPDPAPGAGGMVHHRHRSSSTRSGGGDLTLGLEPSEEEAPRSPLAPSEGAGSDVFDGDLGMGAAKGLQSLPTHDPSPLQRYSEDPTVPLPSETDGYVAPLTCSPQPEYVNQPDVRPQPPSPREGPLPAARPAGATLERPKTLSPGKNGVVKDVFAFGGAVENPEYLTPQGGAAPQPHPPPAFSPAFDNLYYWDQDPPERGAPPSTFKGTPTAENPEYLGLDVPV
Source text: In order to determine conditions for a method of measuring the in vitro inhibitory activity of a compound against HER2 exon 20 insertion mutant phosphorylation activity, as in the case of HER2, ProfilerPro Peptide 22 was used as a substrate. A purified recombinant human HER2 exon 20 insertion mutant (A775_G776insYVMA) protein is shown in SEQ ID NO: 7, and was purchased from SignalChem. Upon the measurement of the inhibitory activity of the compound, first, the compound of the present invention was diluted stepwise with dimethyl sulfoxide (DMSO). Subsequently, the HER2 exon 20 insertion mutant protein and the compound of the present invention in DMSO solution (final concentration of DMSO: 5%) were added into a buffer for the kinase reaction (13.5 mM Tris (pH 7.5), 2 mM dithiothreitol, and 0.009% Tween 20), and the obtained mixture was then pre-incubated at 25° C. for 30 minutes. Thereafter, the substrate peptide (final concentration: 1 μM), manganese chloride (final concentration: 25 mM), magnesium chloride (final concentration: 20 mM), and ATP (final concentration: 200 μM) were added into the reaction mixture, and the thus obtained mixture was then incubated at 25° C. for 220 minutes, so that the kinase reaction was carried out. To the reaction solution, EDTA was added to a final concentration of 30 mM, so as to terminate the reaction. Finally, using LabChip (registered trademark) EZ Reader II (PerkinElmer), an unphosphorylated substrate peptide (S) and a phosphorylated peptide (P) were separated and detected according to microchannel capillary electrophoresis.

[3] = test system: SK-BR-3 cells; experiment: Growth inhibitory activity against HER2 expressing cell line SK-BR-3; type: cell-based; conditions: Homo sapiens, SK-BR-3, 72 h; 3 days, CellTiter-Glo 2.0
Protocol: SK-BR-3 cells as a HER2 overexpressing human breast cancer cell line were suspended in a McCoy's 5a medium (manufactured by Life Technologies) supplemented with 10% fetal bovine serum. The cell suspension was seeded in each well of a 384-well flat-bottom microplate, and was then cultured in a 5% carbon dioxide gas-containing culture vessel at 37° C. for 1 day. Thereafter, the compound of the present invention was dissolved in DMSO, and the compound was diluted to 500 times the final concentration in DMSO. The compound in the DMSO solution was diluted with DMSO solution or the medium used in the suspension of the cells, and the obtained solution was then added to each well of the culture plate so that the final concentration of DMSO was 0.2%. The obtained mixture was further cultured in the 5% carbon dioxide gas-containing culture vessel at 37° C. for 3 days. After completion of the culture for 3 days in the presence of the compound, the cells were counted using CellTiter-Glo 2.0 (manufactured by Promega), and the growth inhibition percentage was then calculated according to the following equation. […] Growth inhibitory percentage (%)=(C−T)/(C)×100 T: Emission intensity from the well to which the test compound was added C: Emission intensity from the well to which the test compound was not added

[4] = biological target: Ba/F3-HER2insYVMA cells (Homo sapiens, UniProt P04626, DUP772-775, cells depend on it); experiment: Growth inhibitory activity against HER2 exon 20 insertion mutant expressing cell line; type: cell-based, mouse; conditions: 3 days, CellTiter-Glo 2.0, read-out: HER2ex20insYVMA cell growth inhibitory activity IC50 value
Chain of Ba/F3-HER2insYVMA cells (P04626 with tags, fused parts or gaps DUP772-775): as above
Protocol: Growth inhibitory activity against the HER2 exon 20 insertion mutant was measured using Ba/F3 cells that were a mouse B lymphocyte precursor cell line, into which a human HER2 exon 20 insertion mutant gene had been introduced. The Ba/F3 cells were maintained in an RPMI-1640 medium (Thermo Fisher Scientific) supplemented with 10% fetal bovine serum (FBS), 100 U/mL penicillin, 100 μg/mL streptomycin (Thermo Fisher Scientific) and 1 ng/mL mouse interleukin-3 (mIL-3) (CST).
Upon evaluation of cell growth inhibitory activity, the Ba/F3-HER2insYVMA cells were suspended in an RPMI-1640 medium supplemented with 10% FBS, 100 U/mL penicillin, and 100 μg/mL streptomycin. The cell suspension was seeded in each well of a 96-well flat-bottom microplate, and was then cultured in a 5% carbon dioxide gas-containing culture vessel at 37° C. for 1 day. The compound of the present invention was dissolved in DMSO, and was then diluted with DMSO or the medium used in the suspension of the cells. The obtained solution was then added to each well of the culture plate, so that the final concentration of DMSO became 0.2%. The obtained mixture was further cultured in the 5% carbon dioxide gas-containing culture vessel at 37° C. for 3 days. After completion of the culture for 3 days in the presence of the compound, the cells were counted using CellTiter-Glo 2.0 (manufactured by Promega), and the growth inhibition percentage was then calculated according to the following equation. […] Growth inhibitory percentage (%)=(C−T)/(C)×100 T: Emission intensity from the well to which the test compound was added C: Emission intensity from the well to which the test compound was not added

[5] = Evaluation of oral absorbability; type: in vivo, BALB/cA mice; conditions: oral 50 mg/kg/day; for AUC(0-t): mouse, plasma, BALB/cA mice
Protocol: The compound of the present invention was suspended or dissolved in 0.5% HPMC aqueous solution and 0.1 N hydrochloric acid, and the obtained suspension or solution was orally administered to BALB/cA mice (CLEA Japan, Inc.) at a dose of 50 mg/kg/day. At 0.5, 1, 2, 4 and 6 hours after completion of the oral administration, blood was collected from the facial vein over time, so as to obtain plasma. The concentration of the compound in the obtained plasma was measured by LC-MS/MS, and the oral absorbability of the present compound was evaluated.

[6] = Evaluation of brain penetration properties; type: in vivo, BALB/cA mice; conditions: 0.5 hours after oral 50 mg/kg/day
[7] = test system: NCI-N87 cells; experiment: Growth inhibitory activity against HER2 expressing cell line NCI-N87; type: cell-based; conditions: Homo sapiens, NCI-N87, 72 h; 3 days, CellTiter-Glo 2.0
Protocol: NCI-N87 cells as a HER2 overexpressing human stomach cancer cell line (American Type Culture Collection, Cat No. ATCC (registered trademark) CRL-5822) were suspended in an RPMI640 medium (Wako Pure Chemical Industries, Ltd.) supplemented with 10% fetal bovine serum. Subsequently, the cell suspension was seeded in each well of a 96-well flat-bottom microplate, and was then cultured in a 5% carbon dioxide gas-containing culture vessel at 37° C. for 1 day. Thereafter, the compound of the present invention was dissolved in DMSO, and the compound was diluted to 1000 times the final concentration in DMSO. The compound in the DMSO solution was diluted with the medium used in the suspension of the cells, and the obtained solution was then added to each well of the culture plate, so that the final concentration of DMSO became 0.1%. Regarding a control well, DMSO was diluted with the medium used in the suspension of the cells, and the obtained solution was then added to each well of the culture plate, so that the final concentration of DMSO became 0.1%. After addition of a drug solution, the obtained mixture was further cultured in the 5% carbon dioxide gas-containing culture vessel at 37° C. for 3 days. After completion of the culture for 3 days in the presence of the compound, the cells were counted using CellTiter-Glo 2.0 (manufactured by Promega) in accordance with the protocols recommended by Promega. The growth inhibition percentage was calculated according to the following equation. […] Growth inhibitory percentage (%)=(C−T)/(C)×100 T: Emission intensity from the well to which the test compound was added C: Emission intensity from the well to which the test compound was not added

T1 sequence (P04626 23-1255): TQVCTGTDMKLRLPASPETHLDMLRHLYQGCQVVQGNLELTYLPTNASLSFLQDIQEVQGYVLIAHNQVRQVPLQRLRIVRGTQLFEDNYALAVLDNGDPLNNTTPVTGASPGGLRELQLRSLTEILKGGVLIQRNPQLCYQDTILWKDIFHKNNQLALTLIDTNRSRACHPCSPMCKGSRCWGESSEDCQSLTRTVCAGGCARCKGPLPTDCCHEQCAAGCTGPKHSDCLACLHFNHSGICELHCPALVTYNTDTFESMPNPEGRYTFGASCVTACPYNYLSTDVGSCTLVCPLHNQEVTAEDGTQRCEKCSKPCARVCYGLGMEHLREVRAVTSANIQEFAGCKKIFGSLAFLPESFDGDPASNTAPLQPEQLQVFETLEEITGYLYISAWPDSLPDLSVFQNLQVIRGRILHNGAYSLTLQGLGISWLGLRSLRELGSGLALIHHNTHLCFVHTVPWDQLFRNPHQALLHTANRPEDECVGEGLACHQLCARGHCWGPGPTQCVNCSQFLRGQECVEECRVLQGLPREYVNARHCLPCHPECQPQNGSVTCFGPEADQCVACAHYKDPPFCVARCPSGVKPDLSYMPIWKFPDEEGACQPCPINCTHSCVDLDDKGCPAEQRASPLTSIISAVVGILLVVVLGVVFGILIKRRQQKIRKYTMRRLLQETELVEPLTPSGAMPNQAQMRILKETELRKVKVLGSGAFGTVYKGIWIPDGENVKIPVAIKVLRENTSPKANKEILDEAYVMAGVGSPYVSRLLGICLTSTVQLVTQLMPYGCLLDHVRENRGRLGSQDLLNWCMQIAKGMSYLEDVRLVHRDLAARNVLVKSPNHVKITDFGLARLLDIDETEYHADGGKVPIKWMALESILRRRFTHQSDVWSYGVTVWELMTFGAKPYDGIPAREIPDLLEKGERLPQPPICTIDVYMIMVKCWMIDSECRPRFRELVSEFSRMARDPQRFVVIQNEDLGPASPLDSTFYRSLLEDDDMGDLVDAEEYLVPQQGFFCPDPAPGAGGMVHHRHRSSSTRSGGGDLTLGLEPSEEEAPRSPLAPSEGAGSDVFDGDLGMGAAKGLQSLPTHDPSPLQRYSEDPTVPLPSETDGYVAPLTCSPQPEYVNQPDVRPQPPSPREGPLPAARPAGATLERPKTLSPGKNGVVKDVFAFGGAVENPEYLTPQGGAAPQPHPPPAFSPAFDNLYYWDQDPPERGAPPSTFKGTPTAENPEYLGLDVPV

Compound	pIC50 [1]	pIC50 [2]	pIC50 [3]	GI50 [4] [nM]	AUC(0-t) [5] [µM·h]	oral absorbability attenuated versus the compound of the present invention ([5]; mice)	brain concentration attenuated versus the compound of the present invention ([6]; mice)	Kp at 0.5 h ([6]; mouse, brain, BALB/cA mice, read-out: Kp value (Compound concentration in brain/plasma))	concentration at 0.5 h ([6]; mouse, plasma, BALB/cA mice, read-out: Compound concentration in plasma) [nM]	pIC50 [7]
C=CC(=O)N1C[C@H](n2c(C#CC)c(C(=O)N(C)[C@H](C)c3ccccc3)c3c(N)ncnc32)C[C@@H]1C [Comp. Ex. 5, 7-((3R,5S)-1-acryloyl-5-methylpyrrolidin-3-yl)-4-amino-N-methyl-N—((R)-1-phenylethyl)-6-(prop-1-yn-1-yl)-7H-pyrrolo[2,3-d]pyrimidine-5-carboxamide]	6.89	7.85	6.40	1300	–	–	–	–	–	–
CC#Cc1c(C(=O)N[C@H](C)c2ccccc2)c2c(N)ncnc2n1[C@@H]1C[C@H](C)N(C(=O)/C=C/C)C1 [Comp. Ex. 6, 4-Amino-7-((3R,5S)-1-((E)-but-2-enoyl)-5-methylpyrrolidin-3-yl)-N—((R)-1-phenylethyl)-6-(prop-1-yn-1-yl)-7H-pyrrolo[2,3-d]pyrimidine-5-carboxamide]	6.41	< 5.00	5.52	4100	–	–	–	–	–	–
C=CC(=O)N1C[C@H](n2nc(C(=O)Nc3ccc(CC(=O)N(C)C)c(C)c3C)c3c(N)ncnc32)C[C@@H]1C [Comp. Ex. 2, 1-((3R,5S)-1-acryloyl-5-methylpyrrolidin-3-yl)-4-amino-N-(4-(2-(dimethylamino)-2-oxoethyl)-2,3-dimethylphenyl)-1H-pyrazolo[3,4-d]pyrimidine-3-carboxamide, reference compound]	7.72	8.36	7.60	1900	1.5	more than 4 times	more than 80 times	0.005	1600	–
CC#Cc1c(C(=O)Nc2ccc(COC)cc2)c2c(N)ncnc2n1C1(C)CC1 [Comp. Ex. 1, 4-Amino-N-(4-(methoxymethyl)phenyl)-7-(1-methylcyclopropyl)-6-(prop-1-yn-1-yl)-7H-pyrrolo[2,3-d]pyrimidine-5-carboxamide, reference compound]	< 5.00	< 5.00	< 5.00	> 10000	–	–	–	–	–	–
C=CC(=O)N1C[C@H](n2c(C#CC)c(C(=O)NCC3CCCCC3)c3c(N)ncnc32)C[C@@H]1C [Comp. Ex. 3, 7-((3R,5S)-1-acryloyl-5-methylpyrrolidin-3-yl)-4-amino-N-(cyclohexylmethyl)-6-(prop-1-yn-1-yl)-7H-pyrrolo[2,3-d]pyrimidine-5-carboxamide]	6.20	6.42	5.37	3400	–	–	–	–	–	–
C=CC(=O)N1C[C@H](n2c(C#CC3CC3)c(C(=O)N[C@H](C)c3ccccc3)c3c(N)ncnc32)C[C@@H]1COCC [Example 19, 7-((3R,5R)-1-acryloyl-5-(ethoxymethyl)pyrrolidin-3-yl)-4-amino-6-(cyclopropylethynyl)-N—((R)-1-phenylethyl)-7H-pyrrolo[2,3-d]pyrimidine-5-carboxamide]	8.36	8.96	7.77	50	6.1	–	–	–	–	8.10
C=CC(=O)N1C[C@H](n2c(C#CC)c(C(=O)N[C@H](C)c3ccc(F)cc3F)c3c(N)ncnc32)C[C@@H]1C [Example 7, 7-((3R,5S)-1-acryloyl-5-methylpyrrolidin-3-yl)-4-amino-N—((R)-1-(2,4-difluorophenyl)ethyl)-6-(prop-1-yn-1-yl)-7H-pyrrolo[2,3-d]pyrimidine-5-carboxamide]	8.31	9.41	7.92	40	15	–	–	–	–	7.95
C=CC(=O)N1C[C@H](n2c(C#CC)c(C(=O)NCc3ccccc3C)c3c(N)ncnc32)C[C@@H]1C [Comp. Ex. 4, 7-((3R,5S)-1-acryloyl-5-methylpyrrolidin-3-yl)-4-amino-N-(2-methylbenzyl)-6-(prop-1-yn-1-yl)-7H-pyrrolo[2,3-d]pyrimidine-5-carboxamide]	7.27	7.96	6.47	900	–	–	–	–	–	–
